The text below walks through data of ChEMBL document CHEMBL3045093, “Synthesis, spectral correlation and insect antifeedant activities of some 2-benzimidazole chalcones” (J Saudi Chem Soc, 2013).

Active and inactive are the calls of the source. The calls are words filed in the database; no cut-off is given here.

In the first experiment the test system is Achaea janata. As to the kind of experiment: Antifeedant activity against 4th instar larvae of Achaea janata in […] leaves assessed as total leaf disc consumed at 200 ppm after 24 hrs by leaf disc bioassay. It is filed as functional, organism-based.
Turning to `O=C(/C=C/c1cccc(Br)c1)c1nc2ccccc2[nH]1`, the result was Active. Regarding `O=C(/C=C/c1ccc(O)cc1)c1nc2ccccc2[nH]1`, the result was Active. On to `O=C(/C=C/c1ccccc1Cl)c1nc2ccccc2[nH]1`, for which the outcome was Active. On the same count and under the same terms, as for `Cc1ccc(/C=C/C(=O)c2nc3ccccc3[nH]2)cc1`, the entry is “Active”; as for `O=C(/C=C/c1cccc([N+](=O)[O-])c1)c1nc2ccccc2[nH]1`, “Active”; as for `COc1ccccc1/C=C/C(=O)c1nc2ccccc2[nH]1`, “Active”. The same measure, in the same setting: next, `O=C(/C=C/c1cccc(O)c1)c1nc2ccccc2[nH]1`: “Active”. `O=C(/C=C/c1cccc(Cl)c1)c1nc2ccccc2[nH]1`: the result was Active.

`O=C(/C=C/c1ccc([N+](=O)[O-])cc1)c1nc2ccccc2[nH]1`: the result was Active. The same measure, in the same setting: next, `CN(C)c1ccc(/C=C/C(=O)c2nc3ccccc3[nH]2)cc1`: “Active”. The same measure, in the same setting: next, `COc1ccc(/C=C/C(=O)c2nc3ccccc3[nH]2)cc1`: “Active”; `O=C(/C=C/c1ccc(F)cc1)c1nc2ccccc2[nH]1`: “Active”; `O=C(/C=C/c1ccccc1O)c1nc2ccccc2[nH]1`: “Active”. Same read-out and setting: as for `O=C(/C=C/c1ccc(Br)cc1)c1nc2ccccc2[nH]1`, the entry is “Active”; as for `O=C(/C=C/c1ccc(Cl)cc1)c1nc2ccccc2[nH]1`, “Active”. On to `Cc1cccc(/C=C/C(=O)c2nc3ccccc3[nH]2)c1`, for which the result was Active. Same read-out and setting: as for `O=C(/C=C/c1ccccc1Br)c1nc2ccccc2[nH]1`, the entry is “Active”; as for `O=C(/C=C/c1ccccc1[N+](=O)[O-])c1nc2ccccc2[nH]1`, “Active”; as for `COc1cccc(/C=C/C(=O)c2nc3ccccc3[nH]2)c1`, “Active”. Still for that read-out and setting: as for `Cc1ccccc1/C=C/C(=O)c1nc2ccccc2[nH]1`, the entry is “Active”.

Regarding `O=C(/C=C/c1ccccc1)c1nc2ccccc2[nH]1`, the result was Active.

The next experiment deals with Achaea janata. As to the kind of experiment: Antifeedant activity against 4th instar larvae of Achaea janata in […] leaves assessed as total leaf disc consumed at 150 ppm after 24 hrs by leaf disc bioassay. It is filed as functional, organism-based.
With `O=C(/C=C/c1ccc(Br)cc1)c1nc2ccccc2[nH]1`, the outcome was Active.
